Data reported in PMC10709440, “High-throughput ligand profile characterization in novel cell lines expressing seven heterologous insect olfactory receptors for the detection of volatile plant biomarkers” (Scientific Reports, 2023).
Read-outs that look alike come from different tables or passages of the source.

What was measured:
Drosophila OR10a = target: T1, Drosophila OR10a (Drosophila melanogaster, UniProt Q9VYZ1); assay: Calcium ion fluorescence (GCaMP6) assay, OR10a stable HEK293 cell line; type: cell-based; conditions: for OR10a response (VUAA1-normalized) at 1 μM / OR10a response (VUAA1-normalized) at 10 μM / OR10a response (VUAA1-normalized) at 100 μM: OR10a cell line; for OR10a response (VUAA1-normalized) at 1 μM: VOC concentration 1 μM; for OR10a response (VUAA1-normalized) at 10 μM: VOC concentration 10 μM; for OR10a response (VUAA1-normalized) at 100 μM: VOC concentration 100 μM
T1 construct: expressed in transfected cells
T1 sequence (Q9VYZ1 1-406): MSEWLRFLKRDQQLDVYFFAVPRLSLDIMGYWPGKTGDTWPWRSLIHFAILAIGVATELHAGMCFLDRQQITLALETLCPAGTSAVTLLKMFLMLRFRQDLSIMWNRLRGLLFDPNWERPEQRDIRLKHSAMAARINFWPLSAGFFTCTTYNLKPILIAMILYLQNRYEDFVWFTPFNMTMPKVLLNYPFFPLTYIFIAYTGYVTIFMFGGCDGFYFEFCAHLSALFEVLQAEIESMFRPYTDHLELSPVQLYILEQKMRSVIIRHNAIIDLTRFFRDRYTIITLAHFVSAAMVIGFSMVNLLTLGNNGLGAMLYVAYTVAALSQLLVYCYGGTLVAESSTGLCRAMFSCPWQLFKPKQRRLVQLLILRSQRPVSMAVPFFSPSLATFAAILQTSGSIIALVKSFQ
T1 sequence (Q9VNB5 1-486 partner): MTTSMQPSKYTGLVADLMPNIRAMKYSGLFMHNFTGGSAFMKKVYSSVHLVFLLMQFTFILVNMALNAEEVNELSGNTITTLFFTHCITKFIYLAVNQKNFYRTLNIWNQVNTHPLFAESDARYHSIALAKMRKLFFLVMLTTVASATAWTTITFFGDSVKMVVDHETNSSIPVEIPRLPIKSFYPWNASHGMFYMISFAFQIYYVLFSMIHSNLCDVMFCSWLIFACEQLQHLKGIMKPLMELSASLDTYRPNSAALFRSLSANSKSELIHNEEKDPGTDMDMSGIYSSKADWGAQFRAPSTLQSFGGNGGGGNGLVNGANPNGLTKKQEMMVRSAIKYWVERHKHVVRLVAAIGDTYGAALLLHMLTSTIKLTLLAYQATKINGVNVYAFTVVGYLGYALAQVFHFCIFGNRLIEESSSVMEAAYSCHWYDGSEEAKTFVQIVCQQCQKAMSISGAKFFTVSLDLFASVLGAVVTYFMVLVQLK
Method in brief: (§1)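 HEK293 lines stably expressing each Drosophila OR with GCaMP6, doxycycline-induced (1 μg/mL) 48 or 72 h. Fluorescence recorded 5 s baseline then 30 s after VOC injection at pH 7.3; ΔF=(FMAX−F0)/F0, normalized to 50 µM VUAA1 response per line, triplicate wells averaged; concentration series 0.01–100 μM.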

Drosophila OR49b = target: T2, Drosophila OR49b (Drosophila melanogaster, UniProt Q9V6H2); assay: cell-based; conditions: for activation at 1 µM / activation at 10 µM / activation at 100 µM: HEK293; for Average response / OR49b response (VUAA1-normalized) at 1 μM / OR49b response (VUAA1-normalized) at 10 μM / OR49b response (VUAA1-normalized) at 100 μM: OR49b cell line; for Average response: mean of biological replicates
T2 construct: expressed in transfected cells
T2 sequence (Q9V6H2 1-375): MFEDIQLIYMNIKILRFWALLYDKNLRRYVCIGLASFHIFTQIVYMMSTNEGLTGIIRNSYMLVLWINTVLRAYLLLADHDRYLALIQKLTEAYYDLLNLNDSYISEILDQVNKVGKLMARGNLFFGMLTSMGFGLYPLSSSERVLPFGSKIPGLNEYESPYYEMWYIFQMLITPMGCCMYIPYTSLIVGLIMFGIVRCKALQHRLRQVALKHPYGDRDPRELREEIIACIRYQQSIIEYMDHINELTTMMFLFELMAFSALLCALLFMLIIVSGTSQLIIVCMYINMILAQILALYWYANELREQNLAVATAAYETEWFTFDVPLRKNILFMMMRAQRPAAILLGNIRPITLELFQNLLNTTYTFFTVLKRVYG
T2 sequence (Q9VNB5 1-486 partner): T1 sequence (Q9VNB5 1-486 partner)
Method in brief: as §1

[1] = HEK293, 1 μM VOC, 50 μM VUAA1 = 1, responses not exceeding 0.05 considered 0, read-out: OR10a Average response (VUAA1-normalized)
[2] = HEK293, 10 μM VOC, 50 μM VUAA1 = 1, responses not exceeding 0.05 considered 0, read-out: OR10a Average response (VUAA1-normalized)
[3] = HEK293, 100 μM VOC, 50 μM VUAA1 = 1, responses not exceeding 0.05 considered 0, read-out: OR10a Average response (VUAA1-normalized)
[4] = HEK293, read-out: OR10a response (VUAA1-normalized response), VOC concentration 1 μM
[5] = HEK293, read-out: OR10a response (VUAA1-normalized response), VOC concentration 10 μM
[6] = HEK293, read-out: OR10a response (VUAA1-normalized response), VOC concentration 100 μM
[7] = ligand concentration 1 (unit not given), threshold 0.05, below shown as 0
[8] = ligand concentration 10 (unit not given), threshold 0.05, below shown as 0
[9] = ligand concentration 100 (unit not given), threshold 0.05, below shown as 0
[10] = 1 μM VOC, 50 μM VUAA1 = 1, read-out: OR49b Average response (VUAA1-normalized)
[11] = 10 μM VOC, 50 μM VUAA1 = 1, read-out: OR49b Average response (VUAA1-normalized)
[12] = 100 μM VOC, 50 μM VUAA1 = 1, read-out: OR49b Average response (VUAA1-normalized)
[13] = VOC concentration 1 μM, read-out: OR49b response (VUAA1-normalized response)
[14] = VOC concentration 10 μM, read-out: OR49b response (VUAA1-normalized response)
[15] = VOC concentration 100 μM, read-out: OR49b response (VUAA1-normalized response)
[16] = HEK293, read-out: OR10a Average response (VUAA1-normalized), 1 μM VOC, 50 μM VUAA1 = 1, responses not exceeding 0.05 considered 0
[17] = HEK293, read-out: OR10a Average response (VUAA1-normalized), 10 μM VOC, 50 μM VUAA1 = 1, responses not exceeding 0.05 considered 0
[18] = HEK293, read-out: OR10a Average response (VUAA1-normalized), 100 μM VOC, 50 μM VUAA1 = 1, responses not exceeding 0.05 considered 0
[19] = concentration 10, normalized fluorescence change, values below 0.05 threshold given as 0
[20] = concentration 100, normalized fluorescence change, values below 0.05 threshold given as 0

Compound	activation at 1 µM (Drosophila OR10a; [1]) [%]	activation at 10 µM (Drosophila OR10a; [2]) [%]	activation at 100 µM (Drosophila OR10a; [3]) [%]	activation at 1 µM (Drosophila OR10a; [4]) [%]	activation at 10 µM (Drosophila OR10a; [5]) [%]	activation at 100 µM (Drosophila OR10a; [6]) [%]	DF norm AVERAGE OR10a (Drosophila OR10a; [7])	DF norm AVERAGE OR10a (Drosophila OR10a; [8])	DF norm AVERAGE OR10a (Drosophila OR10a; [9])	activation at 1 µM (Drosophila OR49b; [10]) [%]	activation at 10 µM (Drosophila OR49b; [11]) [%]	activation at 1 µM (Drosophila OR49b; [13]) [%]	activation at 10 µM (Drosophila OR49b; [14]) [%]	activation at 100 µM (Drosophila OR49b; [15]) [%]	Average response (Drosophila OR49b; odorant cc. 1 µM)	Average response (Drosophila OR49b; odorant cc. 10 µM)	Average response (Drosophila OR49b; odorant cc. 100 µM)	DF norm AVERAGE OR49b (Drosophila OR49b; [7])	DF norm AVERAGE OR49b (Drosophila OR49b; [8])	DF norm AVERAGE OR49b (Drosophila OR49b; [9])	further results
CC(=O)OCCC(C)C [isopentyl acetate]	9	19	10	9	19	10	0.08825	0.1921	0.101	0	0	0	0	15	0.00	0.00	0.15	0	0	0.1516	activation at 100 µM (Drosophila OR49b; [12]): 15%
C=C1CC[C@H]2O[C@]2(C)CC[C@@H]2[C@@H]1CC2(C)C [(-)-caryophyllene oxide]	–	–	–	0	0	0	–	–	–	–	–	0	0	0	0.00	0.00	0.00	–	–	–	activation at 1 µM (Drosophila OR10a; [16]): 0%; activation at 10 µM (Drosophila OR10a; [17]): 0%; activation at 100 µM (Drosophila OR10a; [18]): 0%; DF norm AVERAGE OR10a (Drosophila OR10a; concentration 1, normalized fluorescence change, values below 0.05 threshold given as 0): 0; DF norm AVERAGE OR10a (Drosophila OR10a; [19]): 0; DF norm AVERAGE OR10a (Drosophila OR10a; [20]): 0; DF norm AVERAGE OR49b (Drosophila OR49b): 0
CCCCCCCCCC=O [decanal]	0	0	0	0	0	0	0	0	0	–	–	0	0	9	0.00	0.00	0.09	0	0	0.08966	–
CCCCCCCCC=O [nonanal]	0	3	0	–	–	–	0	0	0	–	–	–	–	–	0.00	0.00	0.00	0	0	0	OR10a response (VUAA1-normalized) at 1 μM (Drosophila OR10a): 0.00; OR10a response (VUAA1-normalized) at 10 μM (Drosophila OR10a): 0.00; OR10a response (VUAA1-normalized) at 100 μM (Drosophila OR10a): 0.00; OR49b response (VUAA1-normalized) at 1 μM (Drosophila OR49b; VOC concentration 1 μM): 0.00; OR49b response (VUAA1-normalized) at 10 μM (Drosophila OR49b; VOC concentration 10 μM): 0.00; OR49b response (VUAA1-normalized) at 100 μM (Drosophila OR49b; VOC concentration 100 μM): 0.00
CC1=CC[C@@H](C(C)(C)O)CC1 [alpha-terpineol]	–	–	–	0	0	0	0	0	0	–	–	0	0	0	0.00	0.00	0.0245	0	0	0	activation at 1 µM (Drosophila OR10a; [16]): 3.64%; activation at 10 µM (Drosophila OR10a; [17]): 2.71%; activation at 100 µM (Drosophila OR10a; [18]): 0%
CCOC(=O)CC [ethyl propionate]	1.56	1.89	0	0	0	0	0	0	0	–	–	0	0	0	0.00	0.00	0.0428	0	0	0	–
O=Cc1ccccc1 [benzaldehyde]	0	4	17	0	0	17	0	0	0.1697	0	3	0	0	23	0.00	0.0283	0.23	0	0	0.2265	activation at 100 µM (Drosophila OR49b; [12]): 23%
CCCCCC(O)CC (stereo not shown) [3-octanol]	0	6	6	0	6	6	–	–	–	–	–	0	7	5.5	0.00	0.07	0.055	–	–	–	DF norm AVERAGE OR10a (Drosophila OR10a): 0; DF norm AVERAGE OR10a (Drosophila OR10a; [19]): 0.05884; DF norm AVERAGE OR10a (Drosophila OR10a; [20]): 0.05921
Cc1ccc(C)cc1 [p-xylene]	–	–	–	–	–	–	0	0	0.06412	0	3	–	–	–	0.00	0.033	0.38	0	0	0.379	activation at 1 µM (Drosophila OR10a; [16]): 0%; activation at 10 µM (Drosophila OR10a; [17]): 0%; activation at 100 µM (Drosophila OR10a; [18]): 6.41%; OR10a response (VUAA1-normalized) at 1 μM (Drosophila OR10a): 0.00; OR10a response (VUAA1-normalized) at 10 μM (Drosophila OR10a): 0.00; OR10a response (VUAA1-normalized) at 100 μM (Drosophila OR10a): 0.0641; activation at 100 µM (Drosophila OR49b; [12]): 38%; OR49b response (VUAA1-normalized) at 1 μM (Drosophila OR49b; VOC concentration 1 μM): 0.00; OR49b response (VUAA1-normalized) at 10 μM (Drosophila OR49b; VOC concentration 10 μM): 0.00; OR49b response (VUAA1-normalized) at 100 μM (Drosophila OR49b; VOC concentration 100 μM): 0.38
